Entries after “also recorded” stand apart in the source; their conditions may differ.
What was measured:
CD8^+ T cells = format: cell-based, C57BL/6 mice
EL4 cells = test: Immunization with TSA-pulsed DCs followed by live EL4 cell challenge and rechallenge; format: in vivo, C57BL/6 mice; conditions: for mice with prolonged survival after priming / day-150 survival rate: immunized twice with TSA-pulsed DCs, 5×10^5 live EL4 cells i.v. day 0; for outcome of rechallenge with live EL4 cells at day 150: surviving immunized mice rechallenged at day 150
Protocol: Generation of bone marrow-derived dendritic cells (DCs), mouse immunization and EL4 cell injection. Bone marrow—derived DCs were generated as previously described^13a,14a. For mouse immunization, DCs from male C57BL/6 mice were pulsed with 2 μM of the selected peptide for 3 hours, then washed. 8- to 12-week old female C57BL/6 mice were injected i.v. with 10^6 individually peptide-pulsed DCs at day −14 and −7, or with irradiated EL4 cells (10,000 cGy). As negative control, C57BL/6 female mice were immunized with unpulsed DCs. At day 0 and day 150, mice were injected i.v. with 5×10^5 EL4 cells and were monitored for weight loss, paralysis, or tumor outgrowth.

[1] = literature references 9, 37; cited from earlier work

Sequence	frequency of antigen-specific CD8 T cells in naive mice (CD8^+ T cells)	day-150 survival rate (EL4 cells)	outcome of rechallenge with live EL4 cells at day 150 (EL4 cells)	further results
HGIRNASFI (listed as Murine cytomegalovirus) [M45, H-2db, reference compound]	within range of those observed in previous studies			
IILEFHSL (listed as Mus musculus) [EL4 TSA]	less than one			mice with prolonged survival after priming (EL4 cells): 10%
KAVYNFATC [gp-33, reference compound]	within range of those observed in previous studies			
SPSYVYHQF (listed as Mus musculus) [AH1 peptide, aeTSA previously identified on CT26 cells]				antitumor responses and adverse effects [1]: elicits strong antitumor responses devoid of adverse effects
TSYKFESV [B8R, reference compound]	within range of those observed in previous studies			
TVPLNHNTL (listed as Mus musculus) [EL4 TSA]	less than one	surviving up day 150	survived the rechallenge	mice with prolonged survival after priming (EL4 cells): 10%
VNYIHRNV (VNYXHRNV; VARIANT (4)..(4) Xaa is Ile or Leu; listed as Mus musculus)	frequencies similar to those of the viral controls	20%	not sufficient to protect mice upon rechallenge; also recorded: no significant protection upon rechallenge	time to death from leukemia after rechallenge (EL4 cells; surviving immunized mice rechallenged with EL4 cells at day 150): ≤ 50 days; tetramer^+ CD8 T cells in long-term survivors after rechallenge (CD8^+ T cells): large population of tetramer^+ cells
VNYLHRNV (VNYXHRNV; VARIANT (4)..(4) Xaa is Ile or Leu; listed as Mus musculus)	frequencies similar to those of the viral controls	100%	survived the rechallenge	rank of protection against EL4 challenge (EL4 cells; immunization with TSA-pulsed DCs): best protection

— US11702450B2, “Proteogenomic-based method for identifying tumor-specific antigens” (UNIVERSITÉ DE MONTRÉAL, priority 2018, dated 2023)
